Results: PubChem BioAssay AID1919013 (Molecular Pharmacology Branch, DTP, NCI, 2023)

Tested on: LG0703-F498-PDC complex spheroid growth
Assay: Anticancer human tumor LG0703-F498-PDC patient-derived lung adenocarcinoma cell line growth inhibition [AhR]
Conditions: for IC50: curve of first compound; for viability, T/C: stronger effect = lower value
Procedure, shortened: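 Complex tumor spheroids co-cultured with HUVEC and human MSC stroma; AhR antagonists tested in combination with standard-of-care and investigational agents. Top concentration at or near clinical Cmax (else 10 microM), half-log dilutions; growth expressed as percent test/control.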

[1] = second compound 0.1 µM, first compound 0.0316 µM
[2] = second compound 0.1 µM, first compound 0.1 µM
[3] = second compound 0.1 µM, first compound 0.316 µM
[4] = second compound 0.1 µM, first compound 1 µM
[5] = second compound 0.1 µM, first compound 3.16 µM
[6] = second compound 0.1 µM, first compound 10 µM
[7] = second compound 0.316 µM, first compound 0.0316 µM
[8] = second compound 0.316 µM, first compound 0.1 µM
[9] = second compound 0.316 µM, first compound 0.316 µM
[10] = second compound 0.316 µM, first compound 1 µM
[11] = second compound 0.316 µM, first compound 3.16 µM
[12] = second compound 0.316 µM, first compound 10 µM
[13] = second compound 1 µM, first compound 0.0316 µM
[14] = second compound 1 µM, first compound 0.1 µM
[15] = second compound 1 µM, first compound 0.316 µM
[16] = second compound 1 µM, first compound 1 µM
[17] = second compound 1 µM, first compound 3.16 µM
[18] = second compound 1 µM, first compound 10 µM
[19] = second compound 3.16 µM, first compound 0.0316 µM
[20] = second compound 3.16 µM, first compound 0.1 µM
[21] = second compound 3.16 µM, first compound 0.316 µM
[22] = second compound 3.16 µM, first compound 1 µM
[23] = second compound 3.16 µM, first compound 3.16 µM
[24] = second compound 3.16 µM, first compound 10 µM
[25] = second compound 10 µM, first compound 0.0316 µM
[26] = second compound 10 µM, first compound 0.1 µM
[27] = second compound 10 µM, first compound 0.316 µM
[28] = second compound 10 µM, first compound 1 µM
[29] = second compound 10 µM, first compound 3.16 µM
[30] = second compound 10 µM, first compound 10 µM
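Further: luminescence taken as a proxy for viable cell amount.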
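Wherever viability, T/C is given: percent of DMSO vehicle control where 100% means growth equal to vehicle.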

IC50 (second compound 0.1 µM) | IC50 (second compound 0.316 µM) | IC50 (second compound 1 µM) | IC50 (second compound 3.16 µM) | IC50 (second compound 10 µM) | SMILES | viability, T/C [1] | viability, T/C [2] | viability, T/C [3] | viability, T/C [4] | viability, T/C [5] | viability, T/C [6] | viability, T/C [7] | viability, T/C [8] | viability, T/C [9] | viability, T/C [10] | viability, T/C [11] | viability, T/C [12] | viability, T/C [13] | viability, T/C [14] | viability, T/C [15] | also measured
401 nM | 428 nM | 461 nM | 413 nM | 335 nM | Nc1ccccc1NC(=O)c1ccc(CNC(=O)OCc2cccnc2)cc1 + CC(CO)NC(=O)c1cc(-c2ccc(Cl)cc2)nn(-c2cnn(C)c2)c1=O | 82.4% | 86.8% | 56.2% | 19.3% | 2.71% | 0.45% | 72.8% | 71.6% | 59.7% | 22.6% | 2.65% | 0.63% | 77.8% | 79.9% | 64.5% | viability, T/C [16]: 19.6%; viability, T/C [17]: 3.74%; viability, T/C [18]: 0.67%; viability, T/C [19]: 74.3%; viability, T/C [20]: 71.6%; viability, T/C [21]: 59.3%; viability, T/C [22]: 19.7%; viability, T/C [23]: 2.42%; viability, T/C [24]: 0.89%; viability, T/C [25]: 70.4%; viability, T/C [26]: 77%; viability, T/C [27]: 48.1%; viability, T/C [28]: 21.8%; viability, T/C [29]: 3.12%; viability, T/C [30]: 1.17%
3970 nM | 5260 nM | 2830 nM | < 31.6 nM | < 31.6 nM | COc1cc(Nc2ncc3c(n2)-c2ccc(Cl)cc2C(c2c(F)cccc2OC)=NC3)ccc1C(=O)O + Cc1cncc(-c2nc(NCCc3c[nH]c4ccccc34)c3ncn(C(C)C)c3n2)c1 | 88.6% | 77.1% | 65.4% | 65.8% | 60.2% | 35% | 81.8% | 80.5% | 58.9% | 78.2% | 58.1% | 38.2% | 94.4% | 70.7% | 63% | viability, T/C [16]: 63.7%; viability, T/C [17]: 55.9%; viability, T/C [18]: 35.1%; viability, T/C [19]: 45.7%; viability, T/C [20]: 33.3%; viability, T/C [21]: 38.1%; viability, T/C [22]: 34.6%; viability, T/C [23]: 18.9%; viability, T/C [24]: 10.2%; viability, T/C [25]: 1.81%; viability, T/C [26]: 1.7%; viability, T/C [27]: 2.07%; viability, T/C [28]: 1.87%; viability, T/C [29]: 1.84%; viability, T/C [30]: 3.35%
< 31.6 nM | < 31.6 nM | < 31.6 nM | < 31.6 nM | < 31.6 nM | Nc1ccn(C2OC(CO)C(O)C2(F)F)c(=O)n1 (stereo not given) + Cc1cncc(-c2nc(NCCc3c[nH]c4ccccc34)c3ncn(C(C)C)c3n2)c1 | 40.6% | 36.2% | 31.3% | 28.9% | 28.2% | 18.8% | 39.7% | 37.6% | 35% | 28.1% | 26.4% | 17.9% | 33.5% | 40% | 32.2% | viability, T/C [16]: 28.8%; viability, T/C [17]: 24.1%; viability, T/C [18]: 19.9%; viability, T/C [19]: 24.4%; viability, T/C [20]: 26.7%; viability, T/C [21]: 29.4%; viability, T/C [22]: 19.5%; viability, T/C [23]: 18.1%; viability, T/C [24]: 17.9%; viability, T/C [25]: 0.88%; viability, T/C [26]: 1.65%; viability, T/C [27]: 1.55%; viability, T/C [28]: 1.08%; viability, T/C [29]: 1.14%; viability, T/C [30]: 1.93%
